Results taken from patent US20240418723A1, “SEQUENTIAL TREATMENTS AND BIOMARKERS TO REVERSE RESISTANCE TO KINASE INHIBITORS” (Queen Mary University of London, priority 2021, published 2024).

What was measured:
P31/Fuj AML cells = assay: Sequential treatment of P31/Fuj cells (ATRA or LSD1 inhibitor 5 days, then MEKi 3 days; also co-treatment and reverse treatment): cell viability, cell number, apoptosis, CDI; format: cell-based; conditions: for drug interaction with MEKi in sequential treatment (CDI): alternative LSD1 inhibitor 5 days then trametinib 3 days, P31/Fuj cells (FIGS. 10 D, E)
Protocol: The Bliss independence model was used to derive coefficients of drug interaction (CDI) values, where CDI <1 indicates significant priming by the […] (synergistic effect).
For the proliferation/viability assays, cells were seeded in T75 flasks (0.5×10^6 cells/mL of RPMI/FBS medium) and exposed for 5 days to either vehicle or epigenetic modifier. Unless otherwise specified, the final concentration for GSK2879552 (LSD1i), […] (EZH2i), pinometostat (DOT1Li) and ATRA was 1 μM while for decitabine (DNMTAi) and vorinostat (HDACi) was 100 nM; all epigenetic inhibitors were diluted in DMSO, while ATRA was diluted in Et-OH. Vehicle concentration was kept at 0.1%. […] The final concentration of DMSO was kept at 0.1%. Finally, cells were transferred to 96-well plates (100 μL per well in 3 technical replicates per condition) and cell viability and proliferation were assessed using Guava and ApoTox-Glo Triplex analyses, as indicated below.
For Guava analysis, cells were stained with Guava ViaCount reagent (Luminex #4000-0040) in 96-well plates, by mixing 150 μL of cell suspension with 75 μL of reagent, and left to incubate for a minimum of 10 minutes in the dark, after which they were processed through a Guava easyCyte flow cytometer (Luminex #0500-5005). Flow cytometry data were analysed using CytoSoft (v2.5.7). Viability and cell number values were expressed relative to vehicle control.
For ApoTox-Glo analysis, cell suspensions were transferred to opaque 96-well plates (100 μL per well) and viability and apoptosis measured using ApoTox-Glo Triplex Assay (Promega #G6320). 20 μL of Viability/Cytotoxicity reagent (containing GF-AFC and bis-AAF-R110 substrates) were added to each well, then incubated at 37° C. for 1 hour. Live cell and cytotoxicity outputs were measured on FLUOstar Omega microplate reader (BMG Labtech). To obtain the live cell output, fluorescence was measured at 355EX/520EM (wavelengths in nm); for the cytotoxicity output, fluorescence was measured at 485EX/520EM. Following this, 100 μL of Caspase-Glo 3/7 reagent were added to each well and incubated at 25° C. for 1 hour. Luminescence was then measured on FLUOstar Omega microplate reader (BMG Labtech). The fluorescence and luminescence signals thus obtained were corrected to the respective background controls (culture medium with no cells). Relative cell number values were obtained by normalising live cell outputs to vehicle control. Apoptosis values were obtained by dividing luminescence outputs to the respective live cell outputs, then normalising to vehicle control.
The extent of drug interaction was calculated in Microsoft Excel 2016 using the CDI formula AB/(A*B), where AB is the normalized reduction in cell viability of the sequential treatment, and A and B are the effects of single treatments. Statistical significance of CDI values for each AML sample was determined using a one sample t-test (base R package) with the null hypothesis being that the mean Log2(CDI) equals 0.

P31/Fuj cells = assay: Phosphoproteomics (LC-MS/MS) and kinase network analysis of treated P31/Fuj cells
Protocol: To study ATRA effect over the phosphoproteome, P31/Fuj cells (10×10^6 cells at 0.5×10^6 cell/mL) were seeded in T75 flask and treated with either Et-OH, 1 μM ATRA or 10 μM ATRA for 5 days. […] For both experiments, cells were collected by centrifugation (1500 rpm for 5 min at 5° C.), then cell pellets were washed twice with ice cold PBS supplemented with phosphatase inhibitors (1 mM Na3VO4, 1 mM NaF) and stored at −80° C. Pellets were processed for phosphoproteomics analysis as indicated below.
In brief, cell pellets were lysed in 300 μL of urea buffer (8 M urea in 20 mM HEPES, pH 8.0, supplemented with 1 mM Na3VO4, 1 mM NaF, 1 mM Na4P2O7 and 1 mM P-glycerophosphate). Lysates were further homogenized by sonication (30 cycles of 30 s on 30 s off; Diagenode Bioruptor® Plus) and insoluble material was removed by centrifugation. Protein was quantified using BCA (Thermo Fisher Scientific). Then, 500 μg of protein were subjected to cysteine alkylation using sequential incubation with 10 mM dithiothreitol (DDT) and 16.6 mM iodoacetamide (IAM) for 1 h and 30 min, respectively, at 25° C. with agitation. Trypsin beads (50% slurry of TLCK-trypsin; Thermo Fisher Scientific; Cat. #20230) were equilibrated with 3 washes with 20 mM HEPES (pH 8.0), the urea concentration in the protein suspensions was reduced to 2 M by the addition of 20 mM HEPES (pH 8.0), 100 μL of equilibrated trypsin beads were added and the samples were incubated overnight at 37° C. Trypsin beads were removed by centrifugation (2000×g at 5° C. for 5 min) and the resulting peptide solutions were desalted through Oasis HLB cartridges (Waters) following the manufacturer's indications. Briefly, cartridges were set in a vacuum manifold device and the pressure was adjusted to 5 mmHg. Then, cartridges were conditioned with 1 mL acetonitrile (ACN) and equilibrated with 2.5 mL of wash solution (0.1% trifluoroacetic acid (TFA), 2% ACN). Peptides were loaded in the cartridges and washed with 1 mL of wash solution. Finally, peptides were eluted with 500 μL of glycolic acid buffer 1 (1 M glycolic acid, 5% TFA, 50% ACN). Enrichment of phosphorylated peptides was performed with TiO2 Beads (GL Sciences). The eluents were normalized to 1 mL with glycolic acid buffer 2 (1 M glycolic acid, 5% TFA, 80% ACN) and incubated with 50 μl of TiO2 buffer (50% slurry in 1% TFA) for 5 min at room temperature. TiO2 beads were packed by centrifugation into empty spin columns (Glygen Corporation; Cat. TT2EMT) previously washed with ACN. TiO2 beads were sequentially washed by centrifugation (1500×g for 3 min) with 100 μL of glycolic acid buffer 2, ammonium acetate solution (100 mM ammonium acetate in 25% ACN) and twice with neutral solution (10% ACN). For phosphopeptide elution, spin tips were transferred to fresh tubes, 50 μL of elution solution (5% NH4OH, 7.5% ACN) were added and tips were centrifuged at 1500×g for 3 min. The elution step was repeated a total of 4 times. Finally, samples were snap frozen, dried in a SpeedVac and phosphopeptide pellets were stored at −80° C.

SMILES | drug interaction with MEKi in sequential treatment (CDI) (P31/Fuj AML cells) | sensitisation to MEKi (trametinib) treatment, cell viability (P31/Fuj AML cells; ATRA pre-treatment for five days, then trametinib, P31/Fuj cells (FIG. 2B)) | phosphorylation of the MAPK and PI3K pathway markers ERK1 pY204 and c-MYC pT58/pS62 (P31/Fuj cells; ATRA 1 or 10 μM, 5 days, P31/Fuj cells (FIG. 9B)) | phosphorylation of CEBPE and LTB4R (P31/Fuj cells; ATRA 1 or 10 μM, 5 days, dose-dependent manner, P31/Fuj cells (FIG. 9B)) | axes containing CDKL5 and stress kinases such as STK4 (P31/Fuj cells; ATRA 5 days, P31/Fuj cells) | phosphorylation of MAPK1 and PI3K signaling axes (P31/Fuj cells; ATRA 5 days, P31/Fuj cells)
Cl.Cl.NC1CCC(N[C@@H]2C[C@H]2c2ccccc2)CC1 (relative stereo) [ORY-1001, rel-N1-[(1R,2S)-2-phenylcyclopropyl]-1,4-cyclohexanediamine, dihydrochloride] | synergistic interactions with MEKi |  |  |  |  | 
COc1ccc(-c2c(-c3ccc(C#N)c(F)c3)nc(N3CCC(N)CC3)n(C)c2=O)cc1F [CC-90011] | synergistic interactions with MEKi |  |  |  |  | 
CC1=C(/C=C/C(C)=C/C=C/C(C)=C/C(=O)O)C(C)(C)CCC1 [ATRA, all-trans-retinoic acid] |  | sensitised myeloid P31/Fuj cells to MEKi treatment | decreased | increasing | increasing | decreased
